Source: ChEMBL document CHEMBL1121986, “Spiro oxazolidinedione aldose reductase inhibitors” (J Med Chem, 1982)
The source made the active and inactive calls. The rule behind the calls is not given here.

Experiments:
[1] = target: T1, Aldo-keto reductase family 1 member B1 (Bos taurus, UniProt P16116); test: Inhibitory concentration was determined against partially purified calf lens aldose reductase using glyceraldehyde as a substrate; 10e-6/10e-7
Rattus norvegicus [2] = test: Dose required for reduction of sorbitol accumulation in the sciatic nerve in streptozotocin-diabetic rats in vivo; type: functional
[3] = target: T1, Aldo-keto reductase family 1 member B1; test: Inhibitory concentration was determined against partially purified calf lens aldose reductase using glyceraldehyde as a substrate
[4] = target: T1, Aldo-keto reductase family 1 member B1; test: Inhibitory concentration was determined against partially purified calf lens aldose reductase using glyceraldehyde as a substrate; 10e-7/10e-8
[5] = target: T1, Aldo-keto reductase family 1 member B1; test: Inhibitory concentration was determined against partially purified calf lens aldose reductase using glyceraldehyde as a substrate; 10e-4/10e-5
Rattus norvegicus [6] = test: Dose required for reduction of sorbitol accumulation in the sciatic nerve in streptozotocin-diabetic rats in vivo; Inactive; type: functional, organism-based
[7] = Rattus norvegicus, Sciatic nerve, read-out: ED50

SMILES | IC50 [3] [µM] | ED50 (Rattus norvegicus [2]; [7]) [mg/kg] | further results
O=C1NC(=O)C2(CCSc3ccc(Cl)cc32)O1 (stereo not given) | – | > 1.5 | IC50 [1]: 10 µM
O=C1NC(=O)C2(CCOc3c(Cl)cc(Cl)cc32)O1 (stereo in doubt; 14) | – | > 1.5 | IC50 [4]: 1 µM
O=C1N=C(O)OC12CCOc1ccc(Cl)cc12 (single isomer, unassigned; (+)) | – | – | IC50 [5]: 1000 µM
O=C1NC(=O)C2(CCOc3ccc(F)cc32)O1 (stereo not given) | – | > 1.5 | IC50 [1]: 10 µM
O=C1NC(=O)C2(CCOc3c(Cl)cc(Cl)cc32)O1 (stereo in doubt; 23) | – | – | ED50 (Rattus norvegicus [2]): 1.5 mg/kg
O=C1NC(=O)C2(CCOc3ccc(Cl)cc32)O1 (stereo not given) | – | > 1.5 | IC50 [1]: 10 µM
O=C1N=C(O)OC12CCOc1ccc(Cl)cc12 (single isomer, unassigned; (-)) | 1 | – | –
Cc1cc(Cl)cc2c1OCCC21OC(=O)NC1=O (stereo not given) | – | > 1.5 | IC50 [1]: 10 µM

Continued, in another order:

IC50 [3] [µM] | SMILES | ED50 (Rattus norvegicus [2]; [7]) [mg/kg] | further results
10 | O=C1NC(=O)C2(CCSc3ccc(F)cc32)O1 (stereo not given) | 25 | –
10 | O=C1NC(=O)C2(CCSc3ccccc32)O1 (stereo not given) | 25 | –
100 | O=C1NC(=O)C2(CCOc3ccccc32)O1 (stereo not given) | – | –
100 | O=C1N=C(O)OC12CCOc1c(Cl)cc(Cl)cc12 (single isomer, unassigned; (+)) | – | –
100 | O=C1NC(=O)C2(CCCc3ccccc32)O1 (stereo not given) | – | ED50 (Rattus norvegicus [6]): inactive
1 | O=C1NC(=O)C2(CCOc3ccc(Br)cc32)O1 (stereo not given) | > 1.5 | –
100 | O=C1NC(=O)C2(CCc3ccccc32)O1 (stereo not given) | > 25 | –
